Target: T1, purified recombinant rat FAAH (Rattus norvegicus, UniProt P97612)
T1 construct: The truncated rat FAAH (rFAAH) was expressed in E. coli and purified as described; made in house; host or cells: E. coli
T1 sequence (P97612 30-579 limits assumed): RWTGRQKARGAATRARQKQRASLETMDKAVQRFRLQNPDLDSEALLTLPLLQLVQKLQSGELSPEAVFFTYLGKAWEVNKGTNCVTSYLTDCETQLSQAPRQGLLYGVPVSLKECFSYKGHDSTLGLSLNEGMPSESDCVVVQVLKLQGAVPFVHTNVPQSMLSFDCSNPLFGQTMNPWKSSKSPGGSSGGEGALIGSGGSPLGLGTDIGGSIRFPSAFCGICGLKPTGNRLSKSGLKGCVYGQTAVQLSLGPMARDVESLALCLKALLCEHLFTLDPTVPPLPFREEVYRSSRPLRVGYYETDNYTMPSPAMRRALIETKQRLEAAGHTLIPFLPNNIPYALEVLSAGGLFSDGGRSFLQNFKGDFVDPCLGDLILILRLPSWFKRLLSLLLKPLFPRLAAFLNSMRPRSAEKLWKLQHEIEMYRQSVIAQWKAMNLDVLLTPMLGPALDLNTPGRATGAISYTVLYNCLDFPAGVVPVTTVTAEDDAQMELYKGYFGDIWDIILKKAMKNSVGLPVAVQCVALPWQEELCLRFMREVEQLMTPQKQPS
Experiment: FAAH inhibition enzyme assay (14C-oleamide hydrolysis, Dixon plot)
Type: biochemical
Details: rat FAAH
Procedure: Enzyme assays were performed at 20-23° C. with purified recombinant rat FAAH expressed in E. coli (Patricelli, M. P.; Lashuel, H. A.; et al. Biochemistry 1998, 37, 15177-15187) (unless indicated otherwise) or with solubilized COS-7 membrane extracts from cells transiently transfected with human FAAH cDNA (Giang, D. K.; Cravatt, B. F. Proc. Natl. Acad. Sci. U.S.A. 1997, 94, 2238-2242) (where specifically indicated) in a buffer of 125 mM Tris/1 mM EDTA/0.2% glycerol/0.02% Triton X-100/0.4 mM Hepes, pH 9.0 buffer (Patricelli, M. P.; Patterson, J. P.; et al. Bioorg. Med. Chem. Lett. 1998, 8, 613-618). The initial rates of hydrolysis (≦10-20% reaction) were monitored using enzyme concentrations at least three times below the measured Ki by following the breakdown of ^14C-oleamide and Ki's (standard deviations are provided in Supporting Information tables) were established as described (Dixon plot) (Boger, D. L.; Sato, H.; et al. Proc. Natl. Acad. Sci. U.S.A. 2000, 97, 5044-5049). Lineweaver-Burk analysis previously established reversible, competitive inhibition (Boger, D. L.; Miyauchi, H.; et al. J. Med. Chem. 2005, 48, 1849-1856).
FAAH Inhibition. ^14C-labeled oleamide was prepared from ^14C-labeled oleic acid as described (Cravatt, B. F.; et al. Science 1995, 268, 1506-1509). The truncated rat FAAH (rFAAH) was expressed in E. coli and purified as described (Patricelli, M. P.; Lashuel, H. A.; et al. Biochemistry 1998, 37, 15177-15187). The purified recombinant rFAAH was used in the inhibition assays unless otherwise indicated. The full-length human FAAH (hFAAH) was expressed in COS-7 cells as described (Giang, D. K.; Cravatt, B. F. Proc. Natl. Acad. Sci. U.S.A. 1997, 94, 2238-2242), and the lysate of hFAAH-transfected COS-7 cells was used in the inhibition assays where explicitly indicated.
The inhibition assays were performed as described (Cravatt, B. F.; et al. Science 1995, 268, 1506-1509). In brief, the enzyme reaction was initiated by mixing 1 nM of rFAAH (800, 500, or 200 pM rFAAH for inhibitors with Ki≦1-2 nM) with 10 μM of ^14C-labeled oleamide in 500 μL of reaction buffer (125 mM TrisCl, 1 mM EDTA, 0.2% glycerol, 0.02% Triton X-100, 0.4 mM Hepes, pH 9.0) at room temperature in the presence of three different concentrations of inhibitor. The enzyme reaction was terminated by transferring 20 μL of the reaction mixture to 500 μL of 0.1 N HCl at three different time points. The ^14C-labeled oleamide (substrate) and oleic acid (product) were extracted with EtOAc and analyzed by TLC as detailed (Cravatt, B. F.; et al. Science 1995, 268, 1506-1509). The Ki of the inhibitor was calculated using a Dixon plot as described (standard deviations are provided in the Supporting Information tables) (Boger, D. L.; Sato, H.; et al. Proc. Natl. Acad. Sci. U.S.A. 2000, 97, 5044-5049). Lineweaver-Burk analysis was performed as described confirming competitive, reversible inhibition (Boger, D. L.; Miyauchi, H.; et al. J. Med. Chem. 2005, 48, 1849-1856).

FAAH inhibitory potency (in words) | Compound
reductions in the Ki | O=C(CCCCCCc1ccccn1)c1ncc(-c2ccccn2)o1 [5e, 1-Oxo-1-[5-(2-pyridyl)oxazol-2-yl]-7-(2-pyridyl)heptane]
reductions in the Ki | O=C(CCCCCCc1cccnc1)c1ncc(-c2ccccn2)o1 [5f, 1-Oxo-1-[5-(2-pyridyl)oxazol-2-yl]-7-(3-pyridyl)heptane]

Reference: patent US8124778B2, “Tricyclic inhibitors of fatty acid amide hydrolase” (The Scripps Research Institute, priority 2007, dated 2012)
